Experimental data taken from ChEMBL document CHEMBL1157722, “Novel and selective DNA methyltransferase inhibitors: Docking-based virtual screening and experimental evaluation” (Bioorg Med Chem, 2010).

Columns and labels:
[1] = target: DNA (cytosine-5)-methyltransferase 3B (Homo sapiens, UniProt Q9UBC3); assay: Inhibition of human recombinant DNMT3B expressed in baculovirus-insect cell system by scintillation counting
[2] = target: DNA (cytosine-5)-methyltransferase 1 (Homo sapiens, UniProt P26358); assay: Inhibition of human recombinant DNMT1 expressed in baculovirus-insect cell system by scintillation counting
Chain of DNA (cytosine-5)-methyltransferase 1 (P26358 whole entry): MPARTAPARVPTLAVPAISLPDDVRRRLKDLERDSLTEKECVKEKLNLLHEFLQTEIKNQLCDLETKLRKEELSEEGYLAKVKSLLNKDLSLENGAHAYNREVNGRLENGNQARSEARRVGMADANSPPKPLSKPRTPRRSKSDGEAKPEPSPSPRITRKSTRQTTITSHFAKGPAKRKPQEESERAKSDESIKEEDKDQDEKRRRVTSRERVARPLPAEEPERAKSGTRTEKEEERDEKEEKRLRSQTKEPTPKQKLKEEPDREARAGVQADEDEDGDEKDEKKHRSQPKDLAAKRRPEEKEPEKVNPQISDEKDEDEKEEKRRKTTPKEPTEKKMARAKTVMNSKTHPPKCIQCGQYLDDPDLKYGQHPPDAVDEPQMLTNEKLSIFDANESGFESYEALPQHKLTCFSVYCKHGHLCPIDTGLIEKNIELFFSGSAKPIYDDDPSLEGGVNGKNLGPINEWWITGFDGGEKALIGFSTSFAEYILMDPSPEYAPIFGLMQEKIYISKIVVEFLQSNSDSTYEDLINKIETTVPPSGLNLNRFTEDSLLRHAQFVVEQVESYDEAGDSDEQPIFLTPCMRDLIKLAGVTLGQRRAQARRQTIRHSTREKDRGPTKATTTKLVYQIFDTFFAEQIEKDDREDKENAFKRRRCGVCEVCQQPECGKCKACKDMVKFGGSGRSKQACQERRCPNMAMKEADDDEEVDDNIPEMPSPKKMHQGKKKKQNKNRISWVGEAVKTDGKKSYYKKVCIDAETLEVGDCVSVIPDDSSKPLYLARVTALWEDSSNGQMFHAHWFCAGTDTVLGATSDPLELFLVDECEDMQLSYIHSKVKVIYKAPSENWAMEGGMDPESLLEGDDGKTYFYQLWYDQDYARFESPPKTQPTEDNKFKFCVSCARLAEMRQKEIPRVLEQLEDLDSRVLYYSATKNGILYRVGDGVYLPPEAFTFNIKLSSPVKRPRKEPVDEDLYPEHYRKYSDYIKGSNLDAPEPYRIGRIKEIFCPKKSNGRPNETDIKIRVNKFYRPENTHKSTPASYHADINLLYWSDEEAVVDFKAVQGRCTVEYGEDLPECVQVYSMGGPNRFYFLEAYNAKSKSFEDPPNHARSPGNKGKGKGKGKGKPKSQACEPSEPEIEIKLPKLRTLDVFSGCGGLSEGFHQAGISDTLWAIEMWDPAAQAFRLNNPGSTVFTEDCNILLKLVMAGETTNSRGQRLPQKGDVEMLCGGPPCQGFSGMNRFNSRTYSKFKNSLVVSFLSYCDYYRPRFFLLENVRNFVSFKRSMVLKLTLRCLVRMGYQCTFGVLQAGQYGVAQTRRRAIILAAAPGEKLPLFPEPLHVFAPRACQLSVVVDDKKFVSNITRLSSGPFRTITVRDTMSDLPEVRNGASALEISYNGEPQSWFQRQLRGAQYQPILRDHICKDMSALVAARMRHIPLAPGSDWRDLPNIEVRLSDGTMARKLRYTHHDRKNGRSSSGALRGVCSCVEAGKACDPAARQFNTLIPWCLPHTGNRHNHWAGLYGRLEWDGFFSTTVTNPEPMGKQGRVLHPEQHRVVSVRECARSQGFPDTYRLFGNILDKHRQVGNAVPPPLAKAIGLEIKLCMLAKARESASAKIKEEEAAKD

| IC50 ([1]; read-out: IC50) [µM] | IC50 [2] | IC50 [1] | IC50 ([2]; read-out: IC50) [µM] | SMILES |
| --- | --- | --- | --- | --- |
| 0.25 | – | – | – | Nc1ncnc2c1ncn2[C@@H]1O[C@H](CSCC[C@H](N)C(=O)O)[C@@H](O)[C@H]1O [S-ADENOSYLHOMOCYSTEINE] |
| – | Not Active | Not Active | – | O=C(O)CCCC(C(=O)O)N1C(=O)c2ccccc2C1=O (stereo not given) |
| – | – | Not Active | 212 | O=C(O)COc1ccc(C(=O)c2cc(Br)ccc2OCC(=O)O)cc1 |
